From PMC10199020 (Nature Communications, 2023)
Values joined by “and” are separate entries in the source; they are usually repeats but may differ in a detail not shown here. Equal values may be shown once.

Legend:
[1] = biological target: T1, NL-IL23R and IL12Rβ1 (IL-23 receptor) on HEK293T cells (Homo sapiens, UniProt P42701+Q5VWK5); experiment: IL23-TMR NanoBRET competition assay; format: binding; conditions: 300 pM IL23-TMR
T1 construct: expressed in transfected cells; host or cells: HEK293T (ATCC CRL-3216), transient transfection
Protocol: Schematic created with Biorender.com. IL23R is shown in orange, IL12Rβ1 in purple, IL23p19 in blue, IL12p40 in green and the presence of a TAMRA fluorophore by a pink star. […] In b and c, data are mean ± SEM from 5 independent experiments conducted in either duplicate or triplicate. Details on absolute number of data points included for each concentration are provided in the associated Source Data file.
(§1) Transient transfections for experiments outlined in Fig. 6 were conducted by seeding 100 μL of 2 × 10^5 cells/ml concentrated HEK293T cells into poly-D-lysine (PDL) coated white 96 well clear bottom assay microplates (Greiner) and incubating overnight. The following day transfection mixes were made up that contained a 4:1 ratio of IL23R to IL12Rβ1 constructs to a total concentration of 100 ng per well with a 0.3 μL per well of FuGENE HD transfection reagent (Promega) in OptiMEM (Gibco). These mixtures were incubated for 10 min before being added to the plate at 5 μL per well. The cells were then incubated overnight to allow expression. For all other experiments 2 mL containing 4 × 10^5 cells were seeded into 6 well plates and incubated 5 h before being transiently transfected with 100 μL per well of a transfection mix containing 2 μg of DNA and 6 μL of FuGENE HD. These cells were then incubated overnight before being re-suspended the following day and seeded into PDL coated white assay microplates at 100 μL containing 3 × 10^4 transfected cells. Cells were then incubated overnight before the experiment. Estimates of total expression levels for the different NL-constructs were made by comparing the luminescence levels achieved to that of a NanoLuciferase standard curve measured under the same conditions (Supplementary Fig. 1).
Media was removed from white 96-well microplates containing transfected cells and replaced with fluoroprobe in the presence or absence of antagonist in 50 μL Hanks Balanced Salt Solution (HBSS) with 1 mg/mL BSA (Merck).
(§2) Antagonist competition data were fit with the equation:4 Y=Bmin+Bmax−Bmin/1+10^(LogXC50−[A])C Where ‘Bmax’ is the maximum BRET signal, ‘Bmin’ is the minimum BRET signal, ‘LogXC50’ is the log of the 50% inhibiting concentration of antagonist, ‘[A]’ is the concentration of antagonist and ‘C’ is the Hill slope.

[2] = biological target: T1, NL-IL23R and IL12Rβ1 (IL-23 receptor) on HEK293T cells; experiment: P630-TMR NanoBRET competition assay; format: binding; conditions: Fig. 5a
Protocol: as §1
Media was removed from white 96-well microplates containing transfected cells and replaced with fluoroprobe in the presence or absence of antagonist in 50 μL Hanks Balanced Salt Solution (HBSS) with 1 mg/mL BSA (Merck). After a 1-hour incubation at 37 °C without CO2, 5 μL of HBSS containing 77 μM furimizine was added to each well (final concentration 7 μM), the plate incubated for 5-minutes and the BRET signal measured using a PheraStar FS plate reader (BMG Labtech; data acquisition software version 5.41; MARS analysis software version 3.32) with a 450 ± 30 nm and >550 nm long pass filters.
as §2

[3] = biological target: HiBit-IL23R and LgBit-IL12Rβ1 (Homo sapiens, UniProt Q5VWK5); conditions: 10 μM P630
Source text: Finally, we utilised a NanoBiT BRET system in which a complemented luciferase with fragments bound to both receptor subunits (Fig. 3) can be used as a BRET donor to measure interactions with binary receptor complexes.
Data in b are mean ± SEM from three independent experiments. In each individual experiment, triplicate determinations were made for total binding and duplicate or triplicate determinations made for non-specific binding. Data in c are the mean values obtained in five independent experiments, each conducted with six replicates. […] Data in d are the mean ± SEM from five (NL-IL23R and NL-23R + IL12Rβ1) or three (HiBit-IL23R + LgBit-IL12Rβ1) independent experiments. Source data are provided as a Source Data file.

[4] = system: STAT3 phosphorylation (Tyr705), IL23R + IL12Rβ1; experiment: Phospho-STAT3 AlphaLISA Surefire Ultra assay, wildtype IL23R; format: cell-based, human; conditions: for Individual experimental means, phospho-STAT3 signal (Figure 6 panel b): IL-23 (5nM)
Source text: (§3) To test this, we created untagged and NanoLuc tagged versions of IL23R with the C115Y mutation. […] Using an intra-receptor NanoBRET assay to measure the basal association of receptor subunits (as previously described in Lay et al.[24]), we discovered that the […] mutant still associated with a fluorescently labelled HaloTag (HT) tagged IL12Rβ1 construct although this was reduced by 50.1% from the level of association measured for wildtype IL23R, a reduction consistent with the protein’s reduced total and surface expression (Fig. 6e).
Data are mean ± SEM from five or six (untagged) or three (NanoLuc tagged) independent experiments conducted in triplicate. For the IL23R + IL12Rβ1 data set, one outlier (11108.7) was detected using the Grubbs test (with alpha = 0.001) and removed from the statistical analysis. Statistical significance of the C115Y mutation on the alphaLISA data was assessed using a 2-way ANOVA with Tukey’s multiple comparison test. ***p < 0.001. The p value for the comparison of NL tagged construct response was 0.0001 and the p value for the comparison of untagged receptor was 0.951. c Luminescence signal measured when IL12Rβ1 was expressed with either NL-IL23R or the C115Y mutant. Data are mean ± SEM generated from the mean luminescence values of seven (C115Y) or eight independent experiments performed in pentuplicate. d The proportion of luminescence from c that emanated from extracellular protein (as defined by the reduction in luminescence after treatment with 60 μM NanoLuc extracellular inhibitor). Data are mean ± SEM generated from the mean luminescence values of five (C115Y) or six independent experiments performed in triplicate. e The BRET ratio generated from HaloTag-618 labelled cells expressing NL tagged wildtype or C115Y IL23R with HT-IL12Rβ1 or unlabelled IL12Rβ1. […] Statistical significance of differences in mean values shown in c–e were measured using a 2-sided, non-paired t test with ** indicating a p value of <0.005 and *** indicating a p value of <0.0005. […]

[5] = system: STAT3 phosphorylation (Tyr705), C115Y IL23R + IL12Rβ1; experiment: Phospho-STAT3 AlphaLISA Surefire Ultra assay, C115Y IL23R; format: cell-based, human; conditions: for Mean, phospho-STAT3 signal (Figure 6 panel b): 5 nM IL-23; for Individual experimental means, phospho-STAT3 signal (Figure 6 panel b): IL-23 (5nM)
Source text: as §3
Data are mean ± SEM from five or six (untagged) or three (NanoLuc tagged) independent experiments conducted in triplicate. For the IL23R + IL12Rβ1 data set, one outlier (11108.7) was detected using the Grubbs test (with alpha = 0.001) and removed from the statistical analysis. Statistical significance of the C115Y mutation on the alphaLISA data was assessed using a 2-way ANOVA with Tukey’s multiple comparison test. ***p < 0.001. The p value for the comparison of NL tagged construct response was 0.0001 and the p value for the comparison of untagged receptor was 0.951. c Luminescence signal measured when IL12Rβ1 was expressed with either NL-IL23R or the C115Y mutant. Data are mean ± SEM generated from the mean luminescence values of seven (C115Y) or eight independent experiments performed in pentuplicate. d The proportion of luminescence from c that emanated from extracellular protein (as defined by the reduction in luminescence after treatment with 60 μM NanoLuc extracellular inhibitor). Data are mean ± SEM generated from the mean luminescence values of five (C115Y) or six independent experiments performed in triplicate. e The BRET ratio generated from HaloTag-618 labelled cells expressing NL tagged wildtype or C115Y IL23R with HT-IL12Rβ1 or unlabelled IL12Rβ1. Data are mean ± SEM generated from the mean BRET values of three independent experiments performed in pentuplicate. Statistical significance of differences in mean values shown in c–e were measured using a 2-sided, non-paired t test with ** indicating a p value of <0.005 and *** indicating a p value of <0.0005. The p values for the results shown in c, d and e were p = 0.148, 0.0005 and 0.0013 respectively. Source data are provided as a Source Data file.
Phosphorylation of STAT3 was measured using an AlphaLISA Surefire Ultra assay as previously described. Briefly, transfected HEK293T cells were plated into a poly-D-lysine coated 96 well tissue culture microplate and then incubated overnight. The following day media was replaced with serum free DMEM and the cells incubated for 3 h. […] An AlphaLISA SureFire Ultra assay kit (Perkin Elmer #ALSU-PST3) was then used to measure STAT3 phosphorylation at residue Tyr705. Assays were performed according to the manufacturers’ instructions.

T1 sequence (Q5VWK5 24-629, other chains not shown): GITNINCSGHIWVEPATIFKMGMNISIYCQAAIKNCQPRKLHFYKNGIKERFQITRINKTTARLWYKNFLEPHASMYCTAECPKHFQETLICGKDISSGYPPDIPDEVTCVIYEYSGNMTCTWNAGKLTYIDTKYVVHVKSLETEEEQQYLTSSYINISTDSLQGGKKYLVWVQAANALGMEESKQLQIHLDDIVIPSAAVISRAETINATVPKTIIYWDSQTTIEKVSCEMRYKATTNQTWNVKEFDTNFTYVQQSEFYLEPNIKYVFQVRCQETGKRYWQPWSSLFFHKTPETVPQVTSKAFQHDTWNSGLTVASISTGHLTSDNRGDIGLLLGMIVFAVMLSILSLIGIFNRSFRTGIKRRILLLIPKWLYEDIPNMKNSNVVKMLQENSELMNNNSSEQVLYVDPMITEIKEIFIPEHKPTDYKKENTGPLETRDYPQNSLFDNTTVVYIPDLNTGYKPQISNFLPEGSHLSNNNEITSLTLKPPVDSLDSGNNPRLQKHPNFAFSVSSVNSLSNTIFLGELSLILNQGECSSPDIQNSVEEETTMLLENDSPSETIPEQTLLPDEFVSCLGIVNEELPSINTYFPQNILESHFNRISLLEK
Sequence of HiBit-IL23R and LgBit-IL12Rβ1 (Q5VWK5 24-629, other chains not shown): as above

COc1ccc(C[C@H](NC(=O)[C@H]2NC(=O)[C@H](CCC(N)=O)NC(=O)[C@H](Cc3c[nH]c4ccccc34)NC(=O)[C@H]([C@@H](C)O)NC(=O)[C@H](CC(N)=O)NC(=O)[C@@H](NC(C)=O)C(C)(C)SSC2(C)C)C(=O)N[C@@H](Cc2ccc3ccccc3c2)C(=O)NC(C)(C)C(=O)N[C@@H](CCC(=O)O)C(=O)N[C@@H](CC(N)=O)C(=O)N[C@@H](CC(N)=O)C(N)=O)cc1 [P630]
Inhibition of IL23-TMR binding (Mean) ([1]; [P630] -5.09151 logM): 84.0625
Inhibition of IL23-TMR binding (Mean) ([1]; [P630] -5.56864 logM): 77.8076
Inhibition of IL23-TMR binding (Mean) ([1]; [P630] -6.04576 logM): 62.3503
Inhibition of IL23-TMR binding (Mean) ([1]; [P630] -6.52288 logM): 55.1992
Inhibition of IL23-TMR binding (Mean) ([1]; [P630] -7 logM): 30.8209
Inhibition of IL23-TMR binding (Mean) ([1]; [P630] -7.47712 logM): 11.8559
Inhibition of IL23-TMR binding (Mean) ([1]; [P630] -7.95424 logM): 6.902
Inhibition of IL23-TMR binding (Mean) ([1]; [P630] -8.90849 logM): 4.004
Inhibition of IL23-TMR binding (Mean) ([1]; [P630] -9.38561 logM): -5.834
Inhibition of IL23-TMR binding (Mean) ([1]; [P630] -9.86273 logM): 10.7231
Displacement of 75 nM P630-TMR (Mean) ([2]; [P630] -4.69897 logM): 100.016
Displacement of 75 nM P630-TMR (Mean) ([2]; [P630] -5.69897 logM): 98.9078
Displacement of 75 nM P630-TMR (Mean) ([2]; [P630] -6.69897 logM): 89.0568
Displacement of 75 nM P630-TMR (Mean) ([2]; [P630] -7.69897 logM): 51.2574
Displacement of 75 nM P630-TMR (Mean) ([2]; [P630] -8.69897 logM): 11.835
Displacement of 75 nM P630-TMR (Mean) ([2]; [P630] -9.69897 logM): -0.3727
Displacement of 75 nM P630-TMR (Mean) ([2]; [P630] -10.699 logM): 3.757
Displacement of 75 nM P630-TMR (Mean) ([2]; [P630] -11.699 logM): 1.217
Effect on receptor dimerisation (NanoLuc complementation) [3]: did not affect receptor dimerisation

IL-23: heterodimeric cytokine, disulphide linked complex of IL12p40 and IL23p19
Mean, phospho-STAT3 signal (Figure 6 panel b) ([4]; 5 nM IL-23, transfection NL-IL23R + IL12Rβ1, N 3): 5562.78
Individual experimental means, phospho-STAT3 signal (Figure 6 panel b) ([4]; transfection IL23R + IL12Rβ1): 2394 and 1760.67 and 1431.33 and 2064.67 and 2014
Individual experimental means, phospho-STAT3 signal (Figure 6 panel b) ([4]; transfection NL-IL23R + IL12Rβ1): 2330.67 and 6586.67 and 7771
Mean, phospho-STAT3 signal (Figure 6 panel b) ([5]; transfection IL23R (C115Y) + IL12Rβ1, N 6): 1388.06
Mean, phospho-STAT3 signal (Figure 6 panel b) ([5]; transfection NL-IL23R (C115Y) + IL12Rβ1, N 3): 1262.44
Individual experimental means, phospho-STAT3 signal (Figure 6 panel b) ([5]; transfection IL23R (C115Y) + IL12Rβ1): 1279.33 and 1494.67 and 1589.67 and 1247.67 and 1140 and 1577
Individual experimental means, phospho-STAT3 signal (Figure 6 panel b) ([5]; transfection NL-IL23R (C115Y) + IL12Rβ1): 760 and 1260.33 and 1767
